# Laboratory results from US12617779B2, “Self degradation-type CDK9 inhibitor prodrug and liposome encapsulating same” (Sumitomo Pharma Co., Ltd., priority 2021, dated 2026).
# Experiment: Evaluation of conversion rate to active form in buffer solution (Experimental Example 1)
# Format: physicochemical
# Conditions: for Production rate of Alvocidib / Residual rate: 25 umol/L in buffer solution; for Stability in buffer solution at pH 5: pH 5, 37° C., up to 2 or 3 hours; for Conversion to Alvocidib at pH 7.4: pH 7.4, 37° C., up to 3 hours
# Outline: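 Conversion to Alvocidib and loss of parent were followed by HPLC over 3 h (samples at 0, 0.5, 1, 2, 3 h). Incubations used 25 umol/L compound at 37 °C across pH 5.0–7.4, in 50 mM citrate below pH 6.0 and 50 mM phosphate from pH 6.0 upward.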
smiles,measurement,setting,value
"CC(C)N(CC1CCCCN1)C(=O)Oc1cc(O)c2c(=O)cc(-c3ccccc3Cl)oc2c1[C@H]1CCN(C)C[C@H]1O (stereo partly drawn) [Example 10, 2-(2-chlorophenyl)-5-hydroxy-8-[(3S,4R)-3-hydroxy-1-methylpiperidin-4-yl]-4-oxo-4H-1-benzopyran-7-yl [(piperidin-2-yl)methyl]propan-2-ylcarbamate]",Efficiency of conversion to Alvocidib,"buffer solution, 37° C.",higher efficiency
same,Production rate of Alvocidib,"pH5.0, 0 hr, 37° C.",1.6%
same,Residual rate,"pH5.0, 0 hr, 37° C.",90.6%
same,Stability in buffer solution at pH 5,,stable
same,Production rate of Alvocidib,"pH5.0, 0.5 hr, 37° C.",2.1%
same,Residual rate,"pH5.0, 0.5 hr, 37° C.",90.4%
same,Production rate of Alvocidib,"pH5.0, 1 hr, 37° C.",2.5%
same,Residual rate,"pH5.0, 1 hr, 37° C.",90.8%
same,Production rate of Alvocidib,"pH5.0, 2 hr, 37° C.",3.1%
same,Residual rate,"pH5.0, 2 hr, 37° C.",90.1%
same,Production rate of Alvocidib,"pH5.0, 3 hr, 37° C.",3.9%
same,Residual rate,"pH5.0, 3 hr, 37° C.",89.5%
same,Production rate of Alvocidib,"pH5.5, 0 hr, 37° C.",1.6%
same,Residual rate,"pH5.5, 0 hr, 37° C.",90.7%
same,Production rate of Alvocidib,"pH5.5, 0.5 hr, 37° C.",2.7%
same,Residual rate,"pH5.5, 0.5 hr, 37° C.",90.4%
same,Production rate of Alvocidib,"pH5.5, 1 hr, 37° C.",3.6%
same,Residual rate,"pH5.5, 1 hr, 37° C.",89.5%
same,Production rate of Alvocidib,"pH5.5, 2 hr, 37° C.",5.4%
same,Residual rate,"pH5.5, 2 hr, 37° C.",87.9%
same,Production rate of Alvocidib,"pH5.5, 3 hr, 37° C.",7.2%
same,Residual rate,"pH5.5, 3 hr, 37° C.",86.3%
same,Production rate of Alvocidib,"pH6.0, 0 hr, 37° C.",1.7%
same,Residual rate,"pH6.0, 0 hr, 37° C.",90.7%
same,Production rate of Alvocidib,"pH6.0, 0.5 hr, 37° C.",4.9%
same,Residual rate,"pH6.0, 0.5 hr, 37° C.",88.2%
same,Production rate of Alvocidib,"pH6.0, 1 hr, 37° C.",8.1%
same,Residual rate,"pH6.0, 1 hr, 37° C.",85.2%
same,Production rate of Alvocidib,"pH6.0, 2 hr, 37° C.",14.1%
same,Residual rate,"pH6.0, 2 hr, 37° C.",79.4%
same,Production rate of Alvocidib,"pH6.0, 3 hr, 37° C.",19.8%
same,Residual rate,"pH6.0, 3 hr, 37° C.",74.1%
same,Production rate of Alvocidib,"pH6.5, 0 hr, 37° C.",1.9%
same,Residual rate,"pH6.5, 0 hr, 37° C.",91.3%
same,Production rate of Alvocidib,"pH6.5, 0.5 hr, 37° C.",10.8%
same,Residual rate,"pH6.5, 0.5 hr, 37° C.",82.4%
same,Production rate of Alvocidib,"pH6.5, 1 hr, 37° C.",19.4%
same,Residual rate,"pH6.5, 1 hr, 37° C.",73.9%
same,Production rate of Alvocidib,"pH6.5, 2 hr, 37° C.",34.6%
same,Residual rate,"pH6.5, 2 hr, 37° C.",59.6%
same,Production rate of Alvocidib,"pH6.5, 3 hr, 37° C.",46.2%
same,Residual rate,"pH6.5, 3 hr, 37° C.",47.1%
same,Production rate of Alvocidib,"pH7.0, 0 hr, 37° C.",2.2%
same,Residual rate,"pH7.0, 0 hr, 37° C.",90.7%
same,Production rate of Alvocidib,"pH7.0, 0.5 hr, 37° C.",22.8%
same,Residual rate,"pH7.0, 0.5 hr, 37° C.",70.0%
same,Production rate of Alvocidib,"pH7.0, 1 hr, 37° C.",40.0%
same,Residual rate,"pH7.0, 1 hr, 37° C.",52.8%
same,Production rate of Alvocidib,"pH7.0, 2 hr, 37° C.",63.6%
same,Residual rate,"pH7.0, 2 hr, 37° C.",29.6%
same,Production rate of Alvocidib,"pH7.0, 3 hr, 37° C.",76.4%
same,Residual rate,"pH7.0, 3 hr, 37° C.",0.8%
same,Production rate of Alvocidib,"pH7.4, 0 hr, 37° C.",3.1%
same,Residual rate,"pH7.4, 0 hr, 37° C.",89.9%
same,Conversion to Alvocidib at pH 7.4,,rapidly converted to Alvocidib
same,Production rate of Alvocidib,"pH7.4, 0.5 hr, 37° C.",46.1%
same,Residual rate,"pH7.4, 0.5 hr, 37° C.",46.5%
same,Production rate of Alvocidib,"pH7.4, 1 hr, 37° C.",71.5%
same,Residual rate,"pH7.4, 1 hr, 37° C.",22.6%
same,Production rate of Alvocidib,"pH7.4, 2 hr, 37° C.",87.2%
same,Residual rate,"pH7.4, 2 hr, 37° C.",0.9%
same,Production rate of Alvocidib,"pH7.4, 3 hr, 37° C.",91.6%
same,Residual rate,"pH7.4, 3 hr, 37° C.",0.8%
"CN1CC[C@H](c2c(OC(=O)N(CCF)CC3CCCCN3)cc(O)c3c(=O)cc(-c4ccccc4Cl)oc23)[C@H](O)C1 (stereo partly drawn) [Example 11, 2-(2-chlorophenyl)-5-hydroxy-8-[(3S,4R)-3-hydroxy-1-methylpiperidin-4-yl]-4-oxo-4H-1-benzopyran-7-yl (2-fluoroethyl) [(piperidin-2-yl)methyl]carbamate]",Production rate of Alvocidib,"pH5.0, 0 hr, 37° C.",0.2%
same,Residual rate,"pH5.0, 0 hr, 37° C.",83.2%
same,Stability in buffer solution at pH 5,,stable
same,Production rate of Alvocidib,"pH5.0, 0.5 hr, 37° C.",0.9%
same,Residual rate,"pH5.0, 0.5 hr, 37° C.",82.7%
same,Production rate of Alvocidib,"pH5.0, 1 hr, 37° C.",1.8%
same,Residual rate,"pH5.0, 1 hr, 37° C.",81.3%
same,Production rate of Alvocidib,"pH5.0, 2 hr, 37° C.",3.3%
same,Residual rate,"pH5.0, 2 hr, 37° C.",80.5%
same,Production rate of Alvocidib,"pH5.0, 3 hr, 37° C.",4.8%
same,Residual rate,"pH5.0, 3 hr, 37° C.",79.1%
same,Production rate of Alvocidib,"pH5.5, 0 hr, 37° C.",0.2%
same,Residual rate,"pH5.5, 0 hr, 37° C.",83.6%
same,Production rate of Alvocidib,"pH5.5, 0.5 hr, 37° C.",2.5%
same,Residual rate,"pH5.5, 0.5 hr, 37° C.",81.8%
same,Production rate of Alvocidib,"pH5.5, 1 hr, 37° C.",4.8%
same,Residual rate,"pH5.5, 1 hr, 37° C.",79.2%
same,Production rate of Alvocidib,"pH5.5, 2 hr, 37° C.",9.4%
same,Residual rate,"pH5.5, 2 hr, 37° C.",75.0%
same,Production rate of Alvocidib,"pH5.5, 3 hr, 37° C.",14.0%
same,Residual rate,"pH5.5, 3 hr, 37° C.",70.2%
same,Production rate of Alvocidib,"pH6.0, 0 hr, 37° C.",0.3%
same,Residual rate,"pH6.0, 0 hr, 37° C.",83.7%
same,Production rate of Alvocidib,"pH6.0, 0.5 hr, 37° C.",8.5%
same,Residual rate,"pH6.0, 0.5 hr, 37° C.",76.0%
same,Production rate of Alvocidib,"pH6.0, 1 hr, 37° C.",16.9%
same,Residual rate,"pH6.0, 1 hr, 37° C.",66.6%
same,Production rate of Alvocidib,"pH6.0, 2 hr, 37° C.",32.6%
same,Residual rate,"pH6.0, 2 hr, 37° C.",49.8%
same,Production rate of Alvocidib,"pH6.0, 3 hr, 37° C.",39.4%
same,Residual rate,"pH6.0, 3 hr, 37° C.",44.8%
same,Production rate of Alvocidib,"pH6.5, 0 hr, 37° C.",0.8%
same,Residual rate,"pH6.5, 0 hr, 37° C.",81.4%
same,Production rate of Alvocidib,"pH6.5, 0.5 hr, 37° C.",23.6%
same,Residual rate,"pH6.5, 0.5 hr, 37° C.",60.4%
same,Production rate of Alvocidib,"pH6.5, 1 hr, 37° C.",46.5%
same,Residual rate,"pH6.5, 1 hr, 37° C.",35.6%
same,Production rate of Alvocidib,"pH6.5, 2 hr, 37° C.",60.2%
same,Residual rate,"pH6.5, 2 hr, 37° C.",23.7%
same,Production rate of Alvocidib,"pH6.5, 3 hr, 37° C.",62.7%
same,Residual rate,"pH6.5, 3 hr, 37° C.",21.4%
same,Production rate of Alvocidib,"pH7.0, 0 hr, 37° C.",2.1%
same,Residual rate,"pH7.0, 0 hr, 37° C.",80.0%
same,Production rate of Alvocidib,"pH7.0, 0.5 hr, 37° C.",53.4%
same,Residual rate,"pH7.0, 0.5 hr, 37° C.",30.1%
same,Production rate of Alvocidib,"pH7.0, 1 hr, 37° C.",62.1%
same,Residual rate,"pH7.0, 1 hr, 37° C.",22.0%
same,Production rate of Alvocidib,"pH7.0, 2 hr, 37° C.",67.0%
same,Residual rate,"pH7.0, 2 hr, 37° C.",17.1%
same,Production rate of Alvocidib,"pH7.0, 3 hr, 37° C.",71.6%
same,Residual rate,"pH7.0, 3 hr, 37° C.",12.4%
same,Production rate of Alvocidib,"pH7.4, 0 hr, 37° C.",4.6%
same,Residual rate,"pH7.4, 0 hr, 37° C.",79.7%
same,Conversion to Alvocidib at pH 7.4,,rapidly converted to Alvocidib
same,Production rate of Alvocidib,"pH7.4, 0.5 hr, 37° C.",68.3%
same,Residual rate,"pH7.4, 0.5 hr, 37° C.",16.2%
same,Production rate of Alvocidib,"pH7.4, 1 hr, 37° C.",67.0%
same,Residual rate,"pH7.4, 1 hr, 37° C.",16.7%
same,Production rate of Alvocidib,"pH7.4, 2 hr, 37° C.",67.9%
same,Residual rate,"pH7.4, 2 hr, 37° C.",16.2%
same,Production rate of Alvocidib,"pH7.4, 3 hr, 37° C.",67.3%
same,Residual rate,"pH7.4, 3 hr, 37° C.",15.9%
